From patent publication US8465756B2, “Immunogenic peptides of tumor associated antigen L6 and uses thereof in cancer therapy” (National Health Research Institutes, priority 2009, dated 2013)

Columns and labels:
[1] = tested on: human HLA-A24 and β2-microglobulin; assay: MHC-peptide complex formation assay (ELISA), HLA-A24; type: binding; conditions: MHC-peptide formation rate versus positive control peptide
[2] = tested on: T cells (spleen cells from HLA-A24 transgenic mice); assay: IFN-γ ELISpot on spleen cells of peptide-immunized HLA-A24 transgenic mice; type: in vivo, HLA-A24 transgenic mouse; conditions: HLA-A24 transgenic mice immunized as in Example 2; FIG. 2
Excerpt: FIG. 2 is a chart showing induction of interferon γ in spleen cells from HLA-A24 transgenic mice immunized with a number of immunogenic peptides from TAL6: peptides 17 (SEQ ID NO:14), 18 (SEQ ID NO:15), 20 (SEQ ID NO:16), 21 (SEQ ID NO:17), 22 (SEQ ID NO:18), 23 (SEQ ID NO:19), 24 (SEQ ID NO:20), 26 (SEQ ID NO:21), 27 (SEQ ID NO:22), 29 (SEQ ID NO:41), and 30 (SEQ ID NO:23). “N” refers to a negative control and “P” refers to a positive control.
(§1) One mg of each of the peptides (test peptides) that were identified as HLA-A2-restricted T-cell epitopes in Examples 1 above and 1 mg of PADRE peptide ([…]; SEQ ID NO:25), both in 0.5 ml PBS, were mixed together with 0.5 mL incomplete Freund's adjuvant (IFA). An EBV-derived HLA-A2-restricted epitope, i.e., […](GLC; SEQ ID NO:35), was used as a positive control and an EBV-derived HAL-A24-restricted epitope, i.e., TYGPVFMCL (TYG; SEQ ID NO:37), was used as negative control. 100 μl of the mixture (containing 50 μg of a test peptide) was injected s.c. into the tail base of a HLA-A2 transgenic mouse, once every 7 days for two times. Spleen cells were harvested from the treated mice 7 days after the second injection and cultured in the presence of 10 μg/mL of the test peptide. The supernatant of the cell culture was subjected to an ELISpot assy to examine the amount of IFN-γ contained therein, which correlates to the activity of the test peptide for stimulating T cells.
Each of the peptides (test peptides) that were identified as HLA-A24-restricted T-cell epitopes in Examples 3 above were used to immunize HAL-A24 transgenic mice, following the procedures described in Example 2 above. EBV peptides GLC and TYG were used as a negative control and a positive control, respectively.

[3] = tested on: T cells (spleen cells from HLA-A2 transgenic mice); assay: IFN-γ ELISpot on spleen cells of peptide-immunized HLA-A2 transgenic mice; type: in vivo, HLA-A2 transgenic mouse; conditions: 50 μg peptide with PADRE peptide and IFA s.c. twice; spleen cells cultured with 10 μg/mL test peptide; FIG. 1
Procedure: FIG. 1 is a chart showing induction of interferon γ in spleen cells from HLA-A2 transgenic mice immunized with a number of immunogenic peptides from TAL6: peptides 1 (SEQ ID NO:1), 2 (SEQ ID NO:2), 5 (SEQ ID NO:4), 6 (SEQ ID NO:5), 7 (SEQ ID NO:6), 8 (SEQ ID NO:7), 9 (SEQ ID NO:8), 11 (SEQ ID NO: 10), and 14 (SEQ ID NO:12). “NP” refers to absence of any peptide.
as §1

[4] = tested on: tumor cells EL4/TAL6/HLA-A2; assay: Tumor growth after peptide immunization and transplantation of EL4/TAL6/HLA-A2 tumor cells; type: in vivo, mice
Procedure: FIG. 4 is a chart showing inhibition of tumor growth in mice immunized by immunopeptides derived from TAL6. Tumor volume was calculated using the formula: tumor volume=length×width×width/2. Panel (a): HLA-A2 transgenic mice. Panel (b): Wild-type mice.
Peptide 2 or Peptide 5 listed in Table 1 above, mixed with IFA, was administered subcutaneously to HLA-A2 transgenic mice (50 μg/mouse) or wild-type C57BL/6 mice twice in two weeks. Twenty-one days later, each of the immunized mice was transplanted subcutaneously with 2×10^5 of tumor cells EL4/TAL6/HLA-A2 (EL4 cells stably expressing both TAL6 and HLA-A2) to induce tumor growth in the immunized mice. Sizes of the tumors in the treated mice were monitored every 2-3 days. The tumor volume was calculated using the formula: tumor volume=length×width×width/2.

[5] = tested on: splenocytes from pEK/TAL6-immunized mice; assay: IFN-γ ELISpot on splenocytes of pEK/TAL6 DNA immunized mice stimulated with TAL6 peptides; type: in vivo; conditions: splenocytes from pEK/TAL6-immunized mice stimulated with the peptide; FIG. 3
[6] = HLA-A2 transgenic mice, 50 μg/mouse peptide with IFA s.c. twice, FIG. 4 panel (a)

Relative binding (%) to HLA-A24 [1] [%] | Sequence | other results
125.73 | CYGKCARCI (Synthetic HLA-A24 restricted CTL epitope (2-10 aa of TAL6)) [Peptide 17, TAL6 position 2-10] | 
22.24 | EWNVSLFSIL (Synthetic HLA-A24 restricted CTL epitope (157-166 aa of TAL6)) [Peptide 31, TAL6 position 157-166] | 
72.36 | FFSGIVGGGL (Synthetic HLA-A24 restricted CTL epitope (49-57 aa of TAL6)) [Peptide 23, TAL6 position 49-57] | 
25.29 | GGIEFILCL (Synthetic HLA-A24 restricted CTL epitope (170-178 aa of TAL6)) [Peptide 32, TAL6 position 170-178] | 
14.85 | GGIEFILCLI (Synthetic HLA-A24 restricted CTL epitope (170-179 aa of TAL6)) [Peptide 33, TAL6 position 170-179] | 
117.78 | GYCVIVAAL (Synthetic HLA-A24 restricted CTL epitope (105-113 aa of TAL6)) [Peptide 24, TAL6 position 105-113] | 
61.73 | HSLVGLALL (Synthetic HLA-A24 restricted CTL epitope (12-20 aa of TAL6)) [Peptide 18, TAL6 position 12-20] | 
0.00 | IAANILLYF (Synthetic HLA-A24 restricted CTL epitope (22-30 aa of TAL6)) [Peptide 19, TAL6 position 22-30] | 
64.59 | KYASENHLS (Synthetic HLA-A24 restricted CTL epitope (36-44 aa of TAL6)) [Peptide 21, TAL6 position 36-44] | 
 | LLMLLPAFV (Synthetic HLA-A2 restricted CTL epitope (58-66 aa of TAL6)) [Peptide 5, TAL6 position 58-66] | IFN-γ secretion of T cells [3]: induced IFN-γ secretion of T cells; Inhibition of tumor growth (tumor volume) [4, 6]: significantly inhibited tumor growth; Inhibition of tumor growth (tumor volume) ([4]; wild-type C57BL/6 mice, peptide with IFA s.c. twice, FIG. 4 panel (b)): not in the wild-type mice; IFN-γ-secreting cells activated by test TAL6 peptide [5]: responsive
84.95 | LYFPNGETKY (Synthetic HLA-A24 restricted CTL epitope (28-36 aa of TAL6)) [Peptide 20, TAL6 position 28-36] | 
91.88 | RFVWFFSGI (Synthetic HLA-A24 restricted CTL epitope (45-53 aa of TAL6)) [Peptide 22, TAL6 position 45-53] | 
 | SLVGLALLC (Synthetic HLA-A2 restricted CTL epitope (13-21 aa of TAL6)) [Peptide 2, TAL6 position 13-21] | IFN-γ secretion of T cells [3]: induced IFN-γ secretion of T cells; Inhibition of tumor growth (tumor volume) [4, 6]: reduced tumor growth in the HLA-A2 transgenic mice, albeit in a lower level; IFN-γ-secreting cells activated by test TAL6 peptide [5]: responsive
49.24 | TFASTEGQY (Synthetic HLA-A24 restricted CTL epitope (131-139 aa of TAL6)) [Peptide 25, TAL6 position 131-139] | 
115.71 | TFASTEGQYL (Synthetic HLA-A24 restricted CTL epitope (131-140 aa of TAL6)) [Peptide 26, TAL6 position 131-140] | 

Sequence | Relative binding (%) to HLA-A24 [1] [%] | other results
EWNVSLFSI (Synthetic HLA-A24 restricted CTL epitope (157-165 aa of TAL6)) [Peptide 30, TAL6 position 157-165] | 74.01 | IFN-γ secretion of T cells [2]: induced IFN-γ secretion of T cells
HIVEWNVSLF (Synthetic HLA-A24 restricted CTL epitope (154-163 aa of TAL6)) [Peptide 28, TAL6 position 154-163] | 28.03 | 
IVEWNVSLF (Synthetic HLA-A24 restricted CTL epitope (155-163 aa of TAL6)) [Peptide 29, TAL6 position 155-163] | 41.01 | IFN-γ secretion of T cells [2]: induced IFN-γ secretion of T cells
QYLLDTSTW (Synthetic HLA-A24 restricted CTL epitope (138-147 aa of TAL6)) [Peptide 27, TAL6 position 138-147] | 110.75 | IFN-γ secretion of T cells [2]: induced IFN-γ secretion of T cells
